Reference: patent US5756291A, “Aptamers specific for biomolecules and methods of making” (priority 1995, dated 1998)
“And” between values parts separate entries of the source, which are not always exact repeats. Equal entries are not always repeated.

How the values were obtained:
ancrod = experiment: Ancrod fibrinogen clotting assay; assay type: biochemical
Method: The thrombin 21-mer ancrod assay was conducted as follows. Ancrod was suspended in sterile water at a concentration of 44 U/mL. 10 L ancrod solution was added to 95 L of selection buffer prewarmed to 37 C. 100 L of this mixture was transferred to the coagulation cup of the fibrometer described above, followed by addition of 200 L of fibrinogen and 20 L of 21-mer DNA (both prewarmed to 37 C). TE buffer pH 7.0 was used as a control lacking DNA. The control clot time was 25 seconds while the clot time in the presence of 500 nM 21-mer was 24 seconds and was 26 seconds in the presence of 33M 21-mer.

thrombin [1] = experiment: Thrombin inhibition Ki; assay type: biochemical; conditions: Table 7
Description: The binding affinity of the aptamers herein with respect to targets and other molecules is defined in terms of Kd. The value of this dissociation constant can be determined directly by well-known methods, and can be computed even for complex mixtures by methods such as those, for example, set forth in Caceci, M., et al., Byte (1984) 9:340-362. It has been observed, however, that for some small oligonucleotides, direct determination of Kd is difficult, and can lead to misleadingly high results. Under these circumstances, a competitive binding assay for the target molecule or other candidate substance may be conducted with respect to substances known to bind the target or candidate. The value of the concentration at which 50% inhibition occurs (Ki) is, under ideal conditions, equivalent to Kd. However, in no event can Ki be less than Kd. Thus, determination of Ki, in the alternative, sets a maximal value for the value of Kd. Under those circumstances where technical difficulties preclude accurate measurement of Kd, measurement of Ki can conveniently be substituted to provide an upper limit for Kd.
Independent verification of the Ki for the nonmodified 15-mer was made by determining the extent of thrombin inhibition with varying DNA concentration.

thrombin [2] = experiment: Clotting time, thrombin-catalyzed conversion of fibrinogen to fibrin; assay type: biochemical; conditions: thrombin 10 nM
Method: Clotting time for the thrombin-catalyzed conversion of fibrinogen (2.0 mg/ml in selection buffer) to fibrin at 37 C. was measured using a precision coagulation timer apparatus (Becton-Dickinson, Cat. nos. 64015, 64019, 64020). Thrombin (10 nM) incubated with fibrinogen alone clotted in 40 sec, thrombin incubated with fibrinogen and P1 nuclease (Boehringer-Mannheim, Indianapolis, Ind.) clotted in 39 sec, thrombin incubated with fibrinogen and aptamer clone #5 (200 nM) clotted in 115 sec, and thrombin incubated with fibrinogen, clone #5 (200 nM) and […] clotted in 40 sec. All incubations were carried out at 37 C. using reagents prewarmed to 37 C. Aptamer DNA or, when present, P1 nuclease, was added to the fibrinogen solution prior to addition of thrombin.

thrombin [3] = experiment: Prothrombin time test (PT) after intravenous aptamer in monkeys; assay type: in vivo, cynomologous monkeys; conditions: high dose infusion 0.5 mg/kg/min
Method: Two thrombin aptamers were administered to adult male cynomologous monkeys. Unsubstituted 15-mer DNA with the sequence 5' GGTTGGTGTGGTTGG 3' and an analog, 5' GGTTGGTGTGGTT*G*G 3', containing thioate internucleotide linkages at the indicated positions were used. Aptamer was delivered as an intravenous bolus or infusion and then blood samples were withdrawn at various times after delivery of the bolus or during and after infusion. The catheter was heparinized after the 10 minute timepoint. The animals were not systematically heparinized.
Thrombin inhibition was measured by a prothrombin time test (PT) using a commercially available kit, reagents and protocol (Sigma Diagnostics, St. Louis, catalog Nos. T 0263 and 870-3). Inhibition of thrombin was indicated by an increased clot time compared to the control in the PT test. Clot times were obtained by withdrawing a sample of blood, spinning out red cells and using the plasma in the PT test. Control thrombin PT clot time values were obtained several minutes prior to administration of aptamer. Briefly, the PT assay was conducted using 0.1 mL of monkey plasma prewarmed to 37 C. and 0.2 mL of a 1:1 mixture of thromboplastin (used according to manufacturers instructions) and CaCl2 (25 mM), also prewarmed to 37 C. Thrombin clot times were measured with a fibrometer as described above. […]

human serum albumin = experiment: Filter binding specificity assay (Table 11), albumin; conditions: human serum albumin 100 µM; listed as Clone 29 DNA
Method: (§1) Briefly, radiolabeled aptamer DNA at about a concentration of about 1 nM was incubated with the indicated protein for several minutes at room temperature, followed by filtration of the aptamer-protein mixture through a nitrocellulose filter. The filter was washed with 3 mL of selection buffer and then radioactivity bound to the filters was determined as a % of input radioactivity. Binding data is shown for both unselected 96-mer DNA and for two separate experiments with clone #29 96-mer. All proteins were tested at about 1M concentration except human serum albumin which was used at 100M.

Kallikrein = experiment: Filter binding specificity assay (Table 11), kallikrein; conditions: Kallikrein about 1 µM
Method: as §1

Plasmin = experiment: Filter binding specificity assay (Table 11), plasmin; set-up: dose or concentration left out as unconfirmed
Method: as §1

TPA = experiment: Filter binding specificity assay (Table 11), TPA; conditions: TPA about 1 µM
Method: as §1

thrombin [4] = experiment: Nitrocellulose filter binding, dissociation constant for thrombin; set-up: species or system human
Method: Filter binding assays using aptamer DNA from 14 of the clones were used to determine the dissociation constants (KD) for thrombin as follows: Thrombin concentrations between […] and 1 nM were incubated at room temperature in selection buffer for 5 minutes in the presence of […] of radiolabeled 96-mer derived from cloned Round 5 aptamer DNA. After incubation, the thrombin and aptamer mixture was applied to nitrocellulose filters (0.2 micron, 2.4 cm diameter) that were pretreated with salmon sperm DNA (1 mg/ml DNA in selection buffer) and washed twice with 1 ml selection buffer. After application of thrombin mixture, the filters were washed three times with 1 ml selection buffer. The radioactivity retained on the filters was then determined. KD values for the individual clones ranged from 50 to >2000 nM.
One of these two clones (#17) and the original unselected pool was analyzed for thrombin binding by nitrocellulose filter assay described above using DNA labeled with ^32 P to permit analysis of thrombin binding characteristics. The labeled DNA was synthesized by PCR and contained 5-(1-pentynyl)-2'-deoxyuridine in order to retain the original selected DNA structures. The DNA was incubated with thrombin at various concentrations between 10 nM and 10M to obtain the KD values for thrombin binding. The KD of the unselected pool was […] while the KD of clone 17 was 400 nM. […]

Trypsin = experiment: Filter binding specificity assay (Table 11), trypsin; set-up: dose or concentration left out as unconfirmed
Method: as §1

Prothrombin = experiment: Filter binding specificity assay (Table 11), prothrombin; set-up: dose or concentration left out as unconfirmed; conditions: listed as Clone 29 DNA
Method: as §1

thrombin [5] = experiment: Filter binding specificity assay (Table 11), thrombin; conditions: DNA about 1 nM
Method: as §1

Chymotrypsin = experiment: Filter binding specificity assay (Table 11), chymotrypsin; conditions: Chymotrypsin about 1 µM
Method: as §1

human blood = experiment: Extracorporeal hemodialysis circuit blood coagulation; conditions: heparin 1 U/mL
Method: A bolus of 15-mer DNA was delivered to human blood at 37 C. to give an aptamer concentration of 10M. The blood was contained in an extracorporeal hemodialysis circuit (Travenol, Model No. CA-90). Pressure proximal to the hemodialysis filter was monitored to determine the time after administration of aptamer that coagulation occurred. Blood coagulation was marked by a pressure increase from about 50 mm Hg observed with uncoagulated blood (blood flow rate 200 mL/min) to pressure of at least 400 mm Hg.

5' GGTTGGGCTGGTTGGGTTGGG 3' (chemistry not given here) [Compound 21-mer, 21-mer thrombin aptamer]
clot time (ancrod; 500 nM 21-mer): 24 s
clot time (ancrod; 21-mer): 26 s

GG(dU)TGGTGTGG(dU)TGG: 15-mer with uracil for thymine
Ki (thrombin [1]): 80 nM

5' GGTTGGG 3'
thrombin clotting time (thrombin [2]): 38 s

GGTTGGTGTGGTTGG#G#T: closely related 17-mer with MEA linkages
Ki (thrombin [1]): 35 nM

GGTTGGTGTGGTU'GG: 15-mer with 5-(1-pentynyl)uracil
Ki (thrombin [1]): 20 nM

5' GGTTGGTGTGGTT*G*G 3'
Ki (thrombin [1]): 40 nM
PT clot time during infusion (thrombin [3]): 2.5 to 2.7 times the control value

5' GGGGGTT 3' [reference compound]
thrombin clotting time (thrombin [2]): 26 s

GGTTGG(dU)G(dU)GGTTGG: 15-mer with uracil for thymine
Ki (thrombin [1]): 15 nM

5' CGGGGAGAGGTTGGTGTGGTTGGCAATGGCTAGAGTAGTGAC GTTTTCGCGGTGAGGTCC 3' [Clone #29]
% Bound (human serum albumin): 2.0% and < 0.5%
% Bound (Kallikrein): < 0.5%
% Bound (Plasmin): 15.0%
% Bound (TPA): < 0.5%
Kd (thrombin [4]): ~200 nM
% Bound (Trypsin): < 0.5%
% Bound (Prothrombin): 11.0% and 9.5%
% Bound (thrombin [5]; Control, no protein): 0%
% Bound (thrombin [5]; Thrombin about 1 µM): 59.0%
% Bound (Chymotrypsin): < 0.5%

G*G*T*T*G*G*T*G*T*G*G*T*T*G*G: 15-mer with all thioate linkages
Ki (thrombin [1]): 280 nM

heparin
time to blood coagulation in hemodialysis unit (human blood): > 80 min
